Data as given in US20250144067A1, “PERSONALIZED STARVATION THERAPY FOR CANCER” (Faeth Therapeutics, Inc., priority 2021, published 2025).
Structures can show the parent of a compound that is named as a salt. Where two headings read alike, the source gives them in different places.

Columns and labels:
[1] = test system: NCI-H292 lung cancer cells; assay: FDA drug screening, complete media vs cholesterol-free media without statin (TABLE 1); assay type: cell-based, human
[2] = test system: NCI-H292 lung cancer cells; assay: FDA drug screening, complete media vs cholesterol-free media with simvastatin (TABLE 2); assay type: cell-based, human
[3] = Complete minus Cholesterol-free, […]
[4] = NCI-H292 cells in cholesterol-free media without statin
[5] = NCI-H292 cells in complete media
[6] = complete media minus cholesterol-free media + simvastatin, […]
[7] = NCI-H292 cells, cholesterol-free media without statin, FDA drug library screen
[8] = NCI-H292 cells, complete media, FDA drug library screen
[9] = NCI-H292 cells, FDA library drug in cholesterol-free media with simvastatin 0.04 μM
[10] = NCI-H292 cells, FDA library drug in complete media
[11] = complete media vs cholesterol-free media + simvastatin (0.04 μM), […]
[12] = NCI-H292 cells, cholesterol-free media without statin
[13] = NCI-H292 cells, drug in complete media
[14] = complete vs cholesterol-free media, >0 enhanced anti-cancer activity, about 0 neutral, <0 antagonist
[15] = NCI-H292 cells, cholesterol-free media with simvastatin 0.04 μM, cell growth value in FDA drug screen
[16] = NCI-H292 cells, complete media, cell growth value in FDA drug screen
[17] = complete media minus cholesterol-free media + simvastatin, >0 enhanced anti-cancer activity, about 0 neutral, <0 antagonist
[18] = Complete minus Cholesterol-free, greater than 0 enhanced anti-cancer activity, about 0 neutral, below 0 antagonists
[19] = NCI-H292 cells, cholesterol-free media with simvastatin 0.04 μM, FDA drug library screen (TABLE 2)
[20] = complete media minus cholesterol-free media + simvastatin (0.04 μM), >0 enhanced anti-cancer activity, about 0 neutral, <0 antagonist
[21] = complete vs cholesterol-free media, greater than 0 enhanced anti-cancer activity, about 0 neutral, below 0 antagonists
[22] = Complete minus Cholesterol-free, >0 enhanced anti-cancer activity, about 0 neutral, <0 antagonist
[23] = NCI-H292 cells, complete media, FDA drug library screen (TABLE 2)
[24] = NCI-H292 cells, FDA drug library screen, cholesterol-free media without statin
[25] = NCI-H292 cells, FDA drug library screen, complete media
[26] = NCI-H292 cells, FDA drug library screen, cholesterol-free media with simvastatin 0.04 μM
[27] = complete media vs cholesterol-free media + simvastatin (0.04 μM), >0 enhanced anti-cancer activity, about 0 neutral, <0 antagonist
[28] = Complete minus Cholesterol-free, greater than 0 enhanced anti-cancer activity, about 0 neutral, below 0 antagonist

Cetrorelix (Acetate)
Difference [1, 3]: −1.14 | Cholesterol-free [1, 4]: 1.889 | Complete [1, 5]: 0.7459 | Cholesterol-free media + simvastatin (0.04 μM) ([2]; NCI-H292 cells, cholesterol-free media with simvastatin 0.04 μM, […]): 1.03 | Difference [2, 6]: 0.08

CC[C@H](C)[C@H]1O[C@]2(CC[C@@H]1C)C[C@@H]1C[C@@H](C/C=C(\C)[C@@H](O[C@H]3C[C@H](OC)[C@@H](O[C@H]4C[C@H](OC)[C@@H](O)[C@H](C)O4)[C@H](C)O3)[C@@H](C)/C=C/C=C3\CO[C@@H]4[C@H](O)C(C)=C[C@@H](C(=O)O1)[C@]34O)O2 [Ivermectin]
Difference [1, 3]: 0.00 | Cholesterol-free [1, 7]: 0.1454 | Complete [1, 8]: 0.1503 | Cholesterol-free media + simvastatin (0.04 μM) [2, 9]: 1.074 | Complete Media [2, 10]: 0.4557 | Difference [2, 11]: −0.62

Dihydroergotamine (mesylate)
Difference [1, 3]: −0.20 | Cholesterol-free [1, 12]: 1.021 | Complete ([1]; NCI-H292 cells, complete media): 0.8213 | Complete Media [2, 13]: 0.9713 | Difference [2, 11]: −0.18

CO/N=C(\C(=O)N[C@@H]1C(=O)N2C(C(=O)O)=C(Cn3ccc(=N)n3CCO)CS[C@H]12)c1csc(N)n1.O=S(=O)(O)O [Cefoselis (sulfate)]
Cholesterol-free [1, 7]: 0.955 | Complete [1, 8]: 1.116 | Difference [1, 14]: 0.16 | Cholesterol-free media + simvastatin (0.04 μM) [2, 15]: 1.07 | Complete Media [2, 16]: 1.107 | Difference [2, 17]: 0.04

Ibutilide (fumarate)
Difference [1, 18]: −1.13 | Cholesterol-free [1, 4]: 1.969 | Complete [1, 5]: 0.8391 | Cholesterol-free media + simvastatin (0.04 μM) [2, 19]: 1.045 | Difference [2, 20]: −0.02

Sumatriptan (succinate)
Cholesterol-free [1]: 0.9558 | Complete [1]: 2.035 | Difference [1]: 1.08 | Cholesterol-free media + simvastatin (0.04 μM) [2]: 1.195 | Complete Media [2]: 0.8897 | Difference [2]: −0.31

CC1(C)O[C@@H]2[C@@H](CO[C@@]3(COS(N)(=O)=O)OC(C)(C)O[C@@H]23)O1 [Topiramate]
Cholesterol-free [1, 12]: 1.406 | Complete ([1]; NCI-H292 cells, complete media): 0.9724 | Difference [1, 21]: −0.43 | Cholesterol-free media + simvastatin (0.04 μM) [2, 15]: 1.666 | Complete Media [2, 16]: 1.706 | Difference [2, 17]: 0.04

Cc1cc(Nc2ncc(Cl)c(Nc3ccccc3S(=O)(=O)C(C)C)n2)c(OC(C)C)cc1C1CCNCC1 [Ceritinib]
Difference [1, 22]: −0.05 | Cholesterol-free [1, 7]: 0.1038 | Complete [1, 8]: 0.05759 | Cholesterol-free media + simvastatin (0.04 μM) [2, 19]: 0.1163 | Complete Media [2, 23]: 0.0662 | Difference [2, 20]: 0.05

CNC(=O)c1cc(Oc2ccc(NC(=O)Nc3ccc(Cl)c(C(F)(F)F)c3)c(F)c2)ccn1 [Regorafenib (Hydrochloride)]
Difference [1, 22]: 0.04 | Cholesterol-free [1, 7]: 0.8297 | Complete [1, 8]: 0.8736 | Cholesterol-free media + simvastatin (0.04 μM) [2, 19]: 0.9433 | Complete Media [2, 23]: 0.9026 | Difference [2, 20]: −0.04

Trimebutine (maleate)
Difference [1, 3]: −0.13 | Cholesterol-free [1, 24]: 0.9442 | Complete [1, 25]: 0.8142 | Cholesterol-free media + simvastatin (0.04 μM) [2, 26]: 0.6516 | Complete Media [2, 25]: 0.9282 | Difference [2, 6]: 0.28

CCn1cc(C(=O)O)c(=O)c2cnc(N3CCNCC3)nc21 [Pipemidic acid]
Cholesterol-free [1, 12]: 1.181 | Complete ([1]; NCI-H292 cells, complete media): 0.8267 | Difference [1, 21]: −0.35 | Cholesterol-free media + simvastatin (0.04 μM) [2, 19]: 1.008 | Complete Media [2, 23]: 0.9896 | Difference [2, 20]: −0.02

CN(C)[C@@H]1C(O)=C(C(N)=O)C(=O)[C@@]2(O)C(O)=C3C(=O)c4c(O)ccc(Cl)c4[C@@](C)(O)[C@H]3C[C@@H]12 [Chlortetracycline (hydrochloride)]
Cholesterol-free [1, 12]: 1.583 | Complete ([1]; NCI-H292 cells, complete media): 1.205 | Difference [1, 21]: −0.38 | Cholesterol-free media + simvastatin (0.04 μM) [2, 9]: 1.491 | Complete Media [2, 10]: 1.106 | Difference [2, 27]: −0.38

COCCOC(=O)C1=C(C)NC(C)=C(C(=O)OC(C)C)C1c1cccc([N+](=O)[O-])c1 (centres unmarked) [Nimodipine]
Cholesterol-free [1, 12]: 1.269 | Complete ([1]; NCI-H292 cells, complete media): 0.8907 | Difference [1, 21]: −0.38 | Cholesterol-free media + simvastatin (0.04 μM) [2, 19]: 1.215 | Complete Media [2, 23]: 1.187 | Difference [2, 20]: −0.03

N[C@@H](Cc1c[nH]c2ccc(O)cc12)C(=O)O [L-5-Hydroxytryptophan]
Difference [1, 28]: −0.10 | Cholesterol-free [1, 24]: 1.028 | Complete [1, 25]: 0.9245 | Cholesterol-free media + simvastatin (0.04 μM) [2, 26]: 1.408 | Complete Media [2, 25]: 1.327 | Difference [2, 27]: −0.08

CC(C)(C)c1cc(C(C)(C)C)c(NC(=O)c2c[nH]c3ccccc3c2=O)cc1O [Ivacaftor]
Difference [1, 28]: −0.10 | Cholesterol-free [1, 24]: 0.9826 | Complete [1, 25]: 0.878 | Cholesterol-free media + simvastatin (0.04 μM) [2, 26]: 1.021 | Complete Media [2, 25]: 0.931 | Difference [2, 27]: −0.09

Rilmenidine (phosphate)
Difference [1, 3]: 0.01 | Cholesterol-free [1, 7]: 0.9893 | Complete [1, 8]: 0.995 | Cholesterol-free media + simvastatin (0.04 μM) [2, 19]: 1.249 | Complete Media [2, 23]: 1.215 | Difference ([2]; complete media minus cholesterol-free media + simvastatin (0.04 μM), […]): −0.03

Cc1ccccc1C(=O)Nc1ccc(C(=O)N2CCCC(N(C)C)c3ccccc32)cc1 (centres unmarked) [Mozavaptan (hydrochloride)]
Difference [1, 18]: −0.56 | Cholesterol-free [1, 4]: 1.248 | Complete [1, 5]: 0.6877 | Cholesterol-free media + simvastatin (0.04 μM) [2, 15]: 1.17 | Complete Media [2, 16]: 1.196 | Difference [2, 17]: 0.03

O=C1CN(/N=C/c2ccc([N+](=O)[O-])o2)C(=O)N1 [Nitrofurantoin]
Difference [1, 28]: −0.16 | Cholesterol-free [1, 24]: 1.115 | Complete [1, 25]: 0.9573 | Cholesterol-free media + simvastatin (0.04 μM) [2, 26]: 0.848 | Complete Media [2, 25]: 0.7708 | Difference [2, 27]: −0.08

CONC(=O)Nc1ccc(-c2sc3c(c2CN(C)C)c(=O)n(-c2ccc(OC)nn2)c(=O)n3Cc2c(F)cccc2F)cc1 [Relugolix]
Difference [1, 18]: −0.64 | Complete [1, 5]: 0.978 | Cholesterol-free media + simvastatin (0.04 μM) [2, 9]: 1.344 | Complete Media [2, 10]: 1.077 | Difference [2, 27]: −0.27

C[C@H](CCC(=O)O)[C@H]1CC[C@H]2[C@@H]3CC[C@@H]4C[C@H](O)CC[C@]4(C)[C@H]3C[C@H](O)[C@]12C [Deoxycholic acid sodium salt]
Cholesterol-free [1, 7]: 0.8045 | Complete [1, 8]: 0.9543 | Difference [1, 14]: 0.15 | Cholesterol-free media + simvastatin (0.04 μM) ([2]; NCI-H292 cells, drug in cholesterol-free media with simvastatin 0.04 μM): 0.8739 | Complete Media [2, 13]: 0.7063 | Difference [2, 27]: −0.17

CCCC(=O)OCOC(=O)C1=C(C)NC(C)=C(C(=O)OC)C1c1cccc(Cl)c1Cl (centres unmarked) [Clevidipine]
Cholesterol-free [1, 12]: 1.292 | Complete ([1]; NCI-H292 cells, complete media): 0.9289 | Difference [1, 21]: −0.36 | Cholesterol-free media + simvastatin (0.04 μM) [2, 15]: 0.8061 | Complete Media [2, 16]: 0.9036 | Difference [2, 17]: 0.10

Mosapride (citrate)
Cholesterol-free [1, 7]: 0.9953 | Complete [1, 8]: 1.241 | Difference [1, 14]: 0.25 | Cholesterol-free media + simvastatin (0.04 μM) [2, 26]: 0.963 | Complete Media [2, 25]: 0.8629 | Difference [2, 27]: −0.10
